System: NCI-H510 multicellular tumor spheroid growth, % test/control
Experiment: Anticancer human tumor NCI-H510 cell line growth inhibition [Asc];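 note: spheroids exposed to agents for 7 days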;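 for viability, T/C: 100% = DMSO vehicle control wells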
Settings: for IC50: curve of first compound; for viability, T/C: stronger effect = lower value
Description: Multicellular complex tumor spheroid response to apoptosis pathway targeting inhibitors Alrizomadlin, Pelcitoclax, and Dasminapant in combination with a variety of drugs and investigational agents in selected tumor cell lines
The MDM2 inhibitor alrizomadlin, the Bcl-2/Bcl-xL inhibitor pelcitoclax, and the IAPs inhibitor dasminapant were evaluated both individually and in combination with standard of care and investigational anticancer small molecules within a complex spheroid model of solid tumors. . Complex spheroids include a stromal component modeled by human endothelial cells (HUVEC) and fibroblasts modeled by human mesenchymal stem cells (MSCs). The concentration ranges selected for each drug and investigational agent were based upon clinically achievable concentrations if the clinical Cmax of the agent was known.
Compounds. The drugs and investigational agents: alrizomadlin (APG-115; NSC831270), pelcitoclax (APG-1252; NSC835773), dasminapant (APG-1387;NSC834197), TAK-243 (NSC785004), copanlisib (NSC809693), olaparib (NSC753686), talazoparib (NSC767125), cobimetinib (NSC 768068), eltanexor (KPT-8602, NSC 794443), abemaciclib (NSC 768073), sotorasib (NSC818433), adagrasib (NSC 831453), MRTX-1133 (NSC 836407), Iadademestat (ORY1001, NSC 806812), and RMC-4630 (NSC839698), were obtained from the NCI Developmental Therapeutics Program Chemical Repository. The FDA-approved anticancer drug set is available from the Developmental Therapeutics Program at https://dtp.cancer.gov/organization/dscb/obtaining/available plates.htm. […] The stock solutions were prepared in dimethyl sulfoxide (DMSO, Sigma-Aldrich, St. Louis, MO, cat. D2650) at 800-fold the tested concentration and stored at -70 degrees C prior to their use. All drugs and investigational agents were tested over a range starting from a high concentration at or near the clinical Cmax and decreasing in half-log increments. If the clinical Cmax for an agent had not been determined, the highest concentration tested was 10 microM.
The patient-derived cancer (PDC) cell lines include five colon adenocarcinomas: 186277-243-T-J2-PDC, 616215-338-R-J1-PDC, 439559-082-T-J2-PDC, 463943-066-T-J2-PDC, and 519858-162-T-J1-PDC; three pancreatic carcinomas: 323965-272-R-J2-PDC, 521955-158-R6-J3-PDC, and 521955-158-R2-J5-PDC; two uterine sarcomas: 327498-152-R-J2-PDC and 993429-296-R-J1-PDC; two rhabdomyosarcomas: 755483-174-R-J1-PDC and 772245-204-R-J1-PDC; two soft tissue sarcomas: 126254-015-R-J1-PDC and 494315-158-R-J1-PDC; two malignant fibrous histiocytomas: 317291-083-R-J1-PDC and 596521-263-R-J1-PDC; two breast carcinomas: 171881-019-R-J1-PDC and 885512-296-R-J2-PDC; and one ovarian carcinoma: 6556581-035-R-J-PDC were obtained from the NCI PDMR, (https://pdmr.cancer.gov). The established cell lines HSSY-2 synovial sarcoma (RRID:CVCL 8719), SYO-1 synovial sarcoma (RRID:CVCL_7146), MPNST malignant peripheral neural sheath tumor were obtained from the Sloan Kettering Institute. The following established cell lines were purchased from the American Type Culture Collection (ATCC, Manassas, VA), Sor the received from the NCI repository:, PANC-1 pancreatic carcinoma (CRL-1469, RRID:CVCL_0480), OVCAR-5 ovarian carcinoma (RRID:CVCL_1628), OVCAR-8 ovarian carcinoma (RRID:CVCL_1629), , MCF-7 breast carcinoma (CRL-12584, RRID:CVCL_0031), MDA-MB-231 breast carcinoma (CRL-12532, RRID:CVCL_0062), NCI-H1876 small cell lung carcinoma (CRL-5902, RRID:CVCL_1503), NCI-H510A small cell lung carcinoma (HTB-184, RRID:CVCL_1565), NCI-H1417 (CRL-5869, RRID:CVCL_1469), and NCI-H196 small cell lung carcinoma (CRL-5823, RRID:CVCL_1509). Dr. Peter Houghton (Greehey Children's Cancer Research Institute, University of Texas Health Science Center, San Antonio, TX) provided Rh-18 rhabdomyosarcoma (RRID:CVCL_1659). Pooled donor human umbilical vein endothelial cells (HUVEC, Lonza, cat. CC-2519) and human mesenchymal stem cells (hMSC, Lonza, cat. PT-2501) were purchased from Lonza (Walkersville, MD).
Cell Culture. […]

[1] = second compound 0.01 µM, first compound 0.000316 µM
[2] = second compound 0.01 µM, first compound 0.001 µM
[3] = second compound 0.01 µM, first compound 0.00316 µM
[4] = second compound 0.01 µM, first compound 0.01 µM
[5] = second compound 0.01 µM, first compound 0.0316 µM
[6] = second compound 0.01 µM, first compound 0.1 µM
[7] = second compound 0.0316 µM, first compound 0.000316 µM
[8] = second compound 0.0316 µM, first compound 0.001 µM
[9] = second compound 0.0316 µM, first compound 0.00316 µM
[10] = second compound 0.0316 µM, first compound 0.01 µM
[11] = second compound 0.0316 µM, first compound 0.0316 µM
[12] = second compound 0.0316 µM, first compound 0.1 µM
[13] = second compound 0.1 µM, first compound 0.000316 µM
[14] = second compound 0.1 µM, first compound 0.001 µM
[15] = second compound 0.1 µM, first compound 0.00316 µM
[16] = second compound 0.1 µM, first compound 0.01 µM
[17] = second compound 0.1 µM, first compound 0.0316 µM
[18] = second compound 0.1 µM, first compound 0.1 µM
[19] = second compound 0.316 µM, first compound 0.000316 µM
[20] = second compound 0.316 µM, first compound 0.001 µM
[21] = second compound 0.316 µM, first compound 0.00316 µM
[22] = second compound 0.316 µM, first compound 0.01 µM
[23] = second compound 0.316 µM, first compound 0.0316 µM
[24] = second compound 0.316 µM, first compound 0.1 µM
[25] = second compound 1 µM, first compound 0.000316 µM
[26] = second compound 1 µM, first compound 0.001 µM
[27] = second compound 1 µM, first compound 0.00316 µM
[28] = second compound 1 µM, first compound 0.01 µM
[29] = second compound 1 µM, first compound 0.0316 µM
[30] = second compound 1 µM, first compound 0.1 µM

For `Cn1ncnc1[C@H]1c2n[nH]c(=O)c3cc(F)cc(c23)N[C@@H]1c1ccc(F)cc1` + CNC(C)C(=O)NC1CN(S(=O)(=O)c2cccc(S(=O)(=O)N3CCC4CCC(C(=O)NC(c5ccccc5)c5ccccc5)N4C(=O)C(NC(=O)C(C)NC)C3)c2)CCC2CCC(C(=O)NC(c3ccccc3)c3ccccc3)N2C1=O, the IC50 (second compound 0.01 µM) was > 100 nM, the IC50 (second compound 0.0316 µM) was > 100 nM and the IC50 (second compound 0.1 µM) was > 100 nM. The IC50 (second compound 0.316 µM) was > 100 nM, the IC50 (second compound 1 µM) was > 100 nM and the viability, T/C [1] was 102%. For the same compound, the viability, T/C [2] was 101%, the viability, T/C [3] was 105% and the viability, T/C [4] was 104%. The viability, T/C [5] was 72.2%, the viability, T/C [6] was 85.8% and the viability, T/C [7] was 96%. It also gave a viability, T/C [8] of 102%, a viability, T/C [9] of 97% and a viability, T/C [10] of 97.2%. The viability, T/C [11] was 78%, the viability, T/C [12] was 98.4% and the viability, T/C [13] was 110%. The viability, T/C [14] was 97%, the viability, T/C [15] was 104% and the viability, T/C [16] was 98.2%. It also gave a viability, T/C [17] of 72.1%, a viability, T/C [18] of 91.4% and a viability, T/C [19] of 113%. For the same compound, the viability, T/C [20] was 108%, the viability, T/C [21] was 96.6% and the viability, T/C [22] was 96%. It also gave a viability, T/C [23] of 56.8%, a viability, T/C [24] of 93.6% and a viability, T/C [25] of 110%. For the same compound, the viability, T/C [26] was 106%, the viability, T/C [27] was 106% and the viability, T/C [28] was 97.5%. It also gave a viability, T/C [29] of 92.3% and a viability, T/C [30] of 91.1%.
Work on `C=C(F)C(=O)N1CCN(c2nc(OCC3CCCN3C)nc3c2CCN(c2cccc4cccc(Cl)c24)C3)CC1CC#N` (stereo not given) + CCN1C(C(=O)NC23CCC(C(=O)O)(CC2)CC3)C(c2cccc(Cl)c2F)C2(C(=O)Nc3cc(Cl)ccc32)C12CCCCC2 yielded an IC50 (second compound 0.03 µM) of 1170 nM, an IC50 (second compound 0.0949 µM) of 1100 nM and an IC50 (second compound 0.3 µM) of 1280 nM. For the same compound, the IC50 (second compound 0.949 µM) was 717 nM, the IC50 (second compound 3 µM) was 1180 nM and the viability, T/C (second compound 0.03 µM, first compound 0.0316 µM) was 93.8%. The viability, T/C (second compound 0.03 µM, first compound 0.1 µM) was 103%, the viability, T/C (second compound 0.03 µM, first compound 0.316 µM) was 88.3% and the viability, T/C (second compound 0.03 µM, first compound 1 µM) was 58.2%. For the same compound, the viability, T/C (second compound 0.03 µM, first compound 3.16 µM) was 1.61%, the viability, T/C (second compound 0.03 µM, first compound 10 µM) was 0.12% and the viability, T/C (second compound 0.0949 µM, first compound 0.0316 µM) was 78.5%. It also gave a viability, T/C (second compound 0.0949 µM, first compound 0.1 µM) of 89%, a viability, T/C (second compound 0.0949 µM, first compound 0.316 µM) of 100% and a viability, T/C (second compound 0.0949 µM, first compound 1 µM) of 54.6%. The viability, T/C (second compound 0.0949 µM, first compound 3.16 µM) was 3.81%, the viability, T/C (second compound 0.0949 µM, first compound 10 µM) was 0.11% and the viability, T/C (second compound 0.3 µM, first compound 0.0316 µM) was 106%. The viability, T/C (second compound 0.3 µM, first compound 0.1 µM) was 88%, the viability, T/C (second compound 0.3 µM, first compound 0.316 µM) was 109% and the viability, T/C (second compound 0.3 µM, first compound 1 µM) was 62.5%. The viability, T/C (second compound 0.3 µM, first compound 3.16 µM) was 7.29%, the viability, T/C (second compound 0.3 µM, first compound 10 µM) was 0.11% and the viability, T/C (second compound 0.949 µM, first compound 0.0316 µM) was 95.3%. For the same compound, the viability, T/C (second compound 0.949 µM, first compound 0.1 µM) was 91.4%, the viability, T/C (second compound 0.949 µM, first compound 0.316 µM) was 88.5% and the viability, T/C (second compound 0.949 µM, first compound 1 µM) was 34.3%. The viability, T/C (second compound 0.949 µM, first compound 3.16 µM) was 4.93%, the viability, T/C (second compound 0.949 µM, first compound 10 µM) was 0.1% and the viability, T/C (second compound 3 µM, first compound 0.0316 µM) was 87.5%. The viability, T/C (second compound 3 µM, first compound 0.1 µM) was 121%, the viability, T/C (second compound 3 µM, first compound 0.316 µM) was 95% and the viability, T/C (second compound 3 µM, first compound 1 µM) was 52.5%. For the same compound, the viability, T/C (second compound 3 µM, first compound 3.16 µM) was 20.7% and the viability, T/C (second compound 3 µM, first compound 10 µM) was 0.18%.
In the case of `NC1CCC(NC2CC2c2ccccc2)CC1` (stereo not given) + CNC(C)C(=O)NC1CN(S(=O)(=O)c2cccc(S(=O)(=O)N3CCC4CCC(C(=O)NC(c5ccccc5)c5ccccc5)N4C(=O)C(NC(=O)C(C)NC)C3)c2)CCC2CCC(C(=O)NC(c3ccccc3)c3ccccc3)N2C1=O, the IC50 (second compound 0.01 µM) is reported as > 100 nM, the IC50 (second compound 0.0316 µM) is reported as > 100 nM and the IC50 (second compound 0.1 µM) is reported as > 100 nM. The IC50 (second compound 0.316 µM) was > 100 nM, the IC50 (second compound 1 µM) was > 100 nM and the viability, T/C [1] was 85.6%. It also gave a viability, T/C [2] of 105%, a viability, T/C [3] of 97.4% and a viability, T/C [4] of 90%. It also gave a viability, T/C [5] of 105%, a viability, T/C [6] of 94.3% and a viability, T/C [7] of 98.7%. For the same compound, the viability, T/C [8] was 96.7%, the viability, T/C [9] was 92.3% and the viability, T/C [10] was 91.6%. For the same compound, the viability, T/C [11] was 96.9%, the viability, T/C [12] was 94.9% and the viability, T/C [13] was 107%. The viability, T/C [14] was 97.4%, the viability, T/C [15] was 91.2% and the viability, T/C [16] was 89.8%. It also gave a viability, T/C [17] of 96.9%, a viability, T/C [18] of 97.7% and a viability, T/C [19] of 99%. The viability, T/C [20] was 106%, the viability, T/C [21] was 91% and the viability, T/C [22] was 99.9%. For the same compound, the viability, T/C [23] was 102%, the viability, T/C [24] was 97.8% and the viability, T/C [25] was 114%. The viability, T/C [26] was 106%, the viability, T/C [27] was 97.9% and the viability, T/C [28] was 98.1%. The viability, T/C [29] was 94.3% and the viability, T/C [30] was 101%.
